The record followed here is ChEMBL document CHEMBL5230155, “Recent contributions of quinolines to antimalarial and anticancer drug discovery research” (Eur J Med Chem, 2021).

One assay relates to MDA-MB-453. Kind of assay: Antiproliferative activity against human MDA-MB-453 cells. It counts as functional, cell-based.
For another assay, the system named is SNU-423. Put plainly: Antiproliferative activity against human SNU-423 cells. It counts as functional, cell-based.
Another assay relates to RT-112. Kind of assay: Antiproliferative activity against human RT-112 cells. Type of assay: functional, cell-based.
In another assay the test system is HeLa. Kind of assay: Antiproliferative activity against human HeLa cells. It counts as functional, cell-based.
In another assay the test system is DLD-1. Put plainly: Antiproliferative activity against human DLD-1 cells. Type of assay: functional, cell-based.
The next assay concerns MCF7. Kind of assay: Antiproliferative activity against human MCF7 cells. Type of assay: functional, cell-based. Particulars: Homo sapiens, MCF7.
The test system of assay [1] is Plasmodium falciparum.
Description: Antimalarial activity against CQ-sensitive Plasmodium falciparum NF54
The target in assay [2] is T1, Tyrosine-protein kinase receptor UFO (Homo sapiens, UniProt P30530).
T1 sequence (P30530 whole entry): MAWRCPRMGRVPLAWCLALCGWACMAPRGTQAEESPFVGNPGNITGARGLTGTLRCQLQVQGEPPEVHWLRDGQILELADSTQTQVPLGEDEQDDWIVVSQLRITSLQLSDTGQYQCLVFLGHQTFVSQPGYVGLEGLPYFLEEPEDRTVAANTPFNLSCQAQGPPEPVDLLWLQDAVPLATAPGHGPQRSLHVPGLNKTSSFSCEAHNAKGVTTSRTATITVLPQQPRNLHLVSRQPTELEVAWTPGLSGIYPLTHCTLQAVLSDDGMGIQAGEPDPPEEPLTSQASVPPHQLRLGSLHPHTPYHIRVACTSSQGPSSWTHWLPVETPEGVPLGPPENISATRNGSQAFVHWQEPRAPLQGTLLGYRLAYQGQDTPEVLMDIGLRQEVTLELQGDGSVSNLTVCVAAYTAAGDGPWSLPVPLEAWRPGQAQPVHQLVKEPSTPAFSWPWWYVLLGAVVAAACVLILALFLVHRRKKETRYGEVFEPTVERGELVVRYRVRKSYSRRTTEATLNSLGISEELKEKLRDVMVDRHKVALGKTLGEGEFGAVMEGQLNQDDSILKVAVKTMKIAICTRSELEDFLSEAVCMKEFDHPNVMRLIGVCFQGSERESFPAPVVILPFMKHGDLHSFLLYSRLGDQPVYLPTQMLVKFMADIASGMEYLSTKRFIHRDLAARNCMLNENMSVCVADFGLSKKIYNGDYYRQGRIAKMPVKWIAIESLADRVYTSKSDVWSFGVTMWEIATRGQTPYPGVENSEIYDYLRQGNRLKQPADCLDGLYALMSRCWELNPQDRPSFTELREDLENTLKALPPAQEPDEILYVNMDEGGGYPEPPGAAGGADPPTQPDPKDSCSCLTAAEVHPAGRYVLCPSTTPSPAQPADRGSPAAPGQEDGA
Kind of assay: Inhibition of AXL (unknown origin).

Assay [3] can be described thus: Inhibition of PI3K (unknown origin). The arrangement: species or system Homo sapiens.
Assay [4] is described as follows: Binding affinity to human nRNP.
The target of assay [5] is Lysine-specific demethylase 6B (Homo sapiens) (UniProt O15054). Put plainly: Inhibition of JMJD3 (unknown origin) at 25 uM relative to control.
Lysine-specific demethylase 6B (Homo sapiens), sequence (O15054 whole entry): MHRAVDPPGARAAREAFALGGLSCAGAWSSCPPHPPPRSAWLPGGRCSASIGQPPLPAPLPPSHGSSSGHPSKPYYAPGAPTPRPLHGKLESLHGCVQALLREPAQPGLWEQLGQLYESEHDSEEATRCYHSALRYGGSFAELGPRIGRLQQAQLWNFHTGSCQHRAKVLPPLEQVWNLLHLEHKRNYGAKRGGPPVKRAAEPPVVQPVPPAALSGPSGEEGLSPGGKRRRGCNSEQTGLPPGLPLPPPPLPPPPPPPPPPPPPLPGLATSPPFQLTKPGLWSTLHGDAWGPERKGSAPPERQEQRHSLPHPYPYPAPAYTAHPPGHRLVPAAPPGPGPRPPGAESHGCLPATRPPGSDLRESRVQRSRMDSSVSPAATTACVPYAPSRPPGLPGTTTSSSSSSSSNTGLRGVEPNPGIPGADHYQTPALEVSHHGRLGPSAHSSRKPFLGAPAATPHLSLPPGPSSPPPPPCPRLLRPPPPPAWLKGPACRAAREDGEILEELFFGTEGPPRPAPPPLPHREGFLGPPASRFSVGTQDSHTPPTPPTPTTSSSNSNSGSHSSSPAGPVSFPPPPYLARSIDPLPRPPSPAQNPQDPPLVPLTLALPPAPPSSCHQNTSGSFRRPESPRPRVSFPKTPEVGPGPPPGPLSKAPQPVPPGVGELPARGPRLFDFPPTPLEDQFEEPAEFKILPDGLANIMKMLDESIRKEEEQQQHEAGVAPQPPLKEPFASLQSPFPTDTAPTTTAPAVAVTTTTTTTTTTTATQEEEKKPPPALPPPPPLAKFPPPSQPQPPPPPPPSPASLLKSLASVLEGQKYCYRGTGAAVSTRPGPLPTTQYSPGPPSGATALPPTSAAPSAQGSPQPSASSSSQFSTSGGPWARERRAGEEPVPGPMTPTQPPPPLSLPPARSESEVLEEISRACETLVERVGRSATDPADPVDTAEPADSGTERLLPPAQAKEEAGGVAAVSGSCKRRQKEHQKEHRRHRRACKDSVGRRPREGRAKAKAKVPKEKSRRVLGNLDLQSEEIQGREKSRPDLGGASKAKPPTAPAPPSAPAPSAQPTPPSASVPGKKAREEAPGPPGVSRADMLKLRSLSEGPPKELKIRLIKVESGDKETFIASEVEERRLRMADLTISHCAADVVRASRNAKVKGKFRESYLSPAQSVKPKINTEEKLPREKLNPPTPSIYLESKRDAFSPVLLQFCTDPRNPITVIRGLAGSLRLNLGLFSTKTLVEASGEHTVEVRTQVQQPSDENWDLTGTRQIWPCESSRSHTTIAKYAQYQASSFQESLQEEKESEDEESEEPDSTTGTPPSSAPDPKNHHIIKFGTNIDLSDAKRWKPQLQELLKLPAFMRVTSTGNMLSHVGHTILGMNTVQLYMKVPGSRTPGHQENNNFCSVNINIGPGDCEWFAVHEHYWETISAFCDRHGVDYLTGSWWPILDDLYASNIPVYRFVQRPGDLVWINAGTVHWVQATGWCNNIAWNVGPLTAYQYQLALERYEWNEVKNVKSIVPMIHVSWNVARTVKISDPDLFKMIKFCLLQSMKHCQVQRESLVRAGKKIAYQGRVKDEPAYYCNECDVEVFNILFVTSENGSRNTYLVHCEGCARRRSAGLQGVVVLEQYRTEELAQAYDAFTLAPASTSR
For a further assay, the system named is A549. Put plainly: Cytotoxicity against human A549 cells. Type of assay: functional, cell-based.
Another assay concerns HCT-116. Kind of assay: Cytotoxicity against human HCT-116 cells. It counts as functional, cell-based.
Another assay deals with PC-3. Kind of assay: Antiproliferative activity against human PC-3 cells. Type of assay: functional, cell-based.
The test system of assay [6] is Plasmodium falciparum. Put plainly: Antimalarial activity against CQ-sensitive Plasmodium falciparum D6. Type of assay: functional, organism-based.
In assay [7] the test system is Plasmodium falciparum. Kind of assay: Antimalarial activity against multidrug resistant Plasmodium falciparum Dd2. Type of assay: functional, organism-based.
Assay [8] has as its system RPMI-8226. Kind of assay: Induction of apoptosis in human RPMI-8226 cells assessed as fold increase in caspase-3 level. It counts as functional.
Assay [9] deals with RPMI-8226. Put plainly: Induction of apoptosis in human RPMI-8226 cells assessed as fold increase in cytochrome c level. Type of assay: functional.
In assay [10] the test system is RPMI-8226. Kind of assay: Cytotoxicity against human RPMI-8226 cells. Type of assay: functional, cell-based.

By IC50 is commonly meant the concentration at which inhibition is half-maximal. Turning to `COc1cc(N(CCCSC(=S)N2CCN(CCO)CC2)S(=O)(=O)c2cccc3cccnc23)cc(OC)c1OC`, the concentration for half-maximal inhibition (IC50) in the assay with MDA-MB-453, with SNU-423 and with RT-112 was 700 nM throughout.
With `CCONC(=O)c1sc(N2N=C(c3ccc(C)cc3)CC2c2cc3cc(OC)ccc3nc2Cl)nc1C` (stereo unspecified), the IC50 in the assay with HeLa, in the assay with DLD-1 and in the assay with MCF7 was 38 nM in each case.
In the case of `COc1ccc2nc(Cl)c(C3CC(c4ccc(C)cc4)=NN3c3nc(C)c(/N=N/c4ccccc4)s3)cc2c1` (stereo unspecified), the IC50 in the assay with HeLa, with DLD-1 and in the assay with MCF7 was 38 nM each time.
In the assay with Plasmodium falciparum [1], `Clc1ccc2c(N3CC(CN4CCCCC4)N=N3)ccnc2c1` (stereo unspecified) returned an IC50 of 4560 nM.
Turning to `COc1cc2nccc(Oc3ccc(NC(=O)Nc4ccc(F)cc4F)c(F)c3)c2cc1OC`, the IC50 in assay [2] amounted to 360 nM.
In turn, `CC(=O)c1ccc(C#Cc2c(C3CC3)nc3ccccc3c2-c2ccc(F)cc2)cc1` had an IC50 in assay [3] of 450 nM.
Broadly, the Kd is a measure of binding affinity in units of concentration. Read a low Kd as higher affinity. In turn, `O=C(/C=C/c1cc(N2CCOCC2)c2cc(O)ccc2n1)c1ccc(Cl)cc1` came in with a Kd in assay [4] of 20100 nM.
Same read-out and setting: with `COc1ccc(C(=O)/C=C/c2cc(N3CCOCC3)c3cc(F)ccc3n2)cc1` the figure was 4600 nM.
For the molecule `CC(=O)c1cccc(C#Cc2c(C3CC3)nc3ccccc3c2-c2ccc(F)cc2)c1`, in assay [3], the IC50 was determined as 450 nM. That is a sub-micromolar value.
For `COc1cc2c(Oc3ccc(NS(=O)(=O)c4ccccc4C(F)(F)F)cc3F)ccnc2cc1OCCCN1CCC(C)CC1`, inhibition in assay [2] was half-maximal at 21 nM (IC50).
In assay [3], `O=C(O)c1cc(C#Cc2c(C3CC3)nc3ccccc3c2-c2ccc(F)cc2)ccc1Br` had an IC50 of 450 nM. That is a sub-micromolar value.
In the case of `CNC(=O)c1sc(N2N=C(c3ccc(C)cc3)CC2c2cc3cc(OC)ccc3nc2Cl)nc1C` (stereo unspecified), the IC50 in the assay with HeLa, in the assay on DLD-1 and in the assay with MCF7 was 38 nM throughout.
As usually defined, the inhibition is the relative decrease from the control value, in per cent. Low readings indicate little suppression, high ones strong suppression. In turn, `NS(=O)(=O)c1ccc(-c2cnc3c(C(=O)O)ccc(C(=O)O)c3c2)cc1` registered an inhibition in assay [5] of 0%.
As a reminder, the GI50 is the concentration at which growth is held to half of that of the control. For `NC(=O)c1cnc2ccc(-c3cnc4ccccc4c3)cc2c1Nc1ccc(N2CCNCC2)c(C(F)(F)F)c1`, the GI50 in the assay on A549 and in the assay with HCT-116 was 2800 nM throughout.
In turn, `COC[C@H]1OC(=O)c2coc3c2[C@@]1(C)C1=C(C3=O)[C@@H]2CCC(=O)[C@@]2(C)C[C@H]1OC(C)=O` [WORTMANNIN] gave an IC50 in assay [3] of 750 nM.
Take `COc1cc(N(CCCSC(=S)N2CCN(C)CC2)S(=O)(=O)c2cccc3cccnc23)cc(OC)c1OC`: the IC50 in the assay on MDA-MB-453, in the assay on SNU-423 and in the assay with RT-112 was 700 nM throughout.
The molecule `COc1cc(-c2cnc3c(C(=O)O)ccc(C(=O)O)c3c2)ccc1F` returned an inhibition in assay [5] of 0%.
For the molecule `Clc1ccc2c(N3CC(CN4CCOCC4)N=N3)ccnc2c1` (stereo unspecified) [listing 1 of 2 here], it took 4560 nM to reach half-maximal inhibition in the assay on Plasmodium falciparum [1] (IC50).
Regarding `CCN1CCN(C(=S)SCCCN(c2cc(OC)c(OC)c(OC)c2)S(=O)(=O)c2cccc3cccnc23)CC1`, the IC50 in the assay with MDA-MB-453, with SNU-423 and in the assay with RT-112 was 700 nM in each case.
Turning to `CC(O)(CS(=O)(=O)c1ccc(F)cc1)C(=O)Nc1ccc(C#N)c(C(F)(F)F)c1` (stereo unspecified) [BICALUTAMIDE], the IC50 in the assay with PC-3 amounted to 1300 nM.
Turning to `Clc1ccc2c(N3CC(CN4CCCC4)N=N3)ccnc2c1` (stereo unspecified), the IC50 in the assay on Plasmodium falciparum [1] amounted to 4560 nM.
In the assay with Plasmodium falciparum [1], `Clc1ccc2c(N3CC(CN4CCOCC4)N=N3)ccnc2c1` (stereo unspecified) [listing 2 of 2 here] registered an IC50 of 206 nM.
With `Clc1ccc2c(N3CCN(CCCN4CCN(c5ccnc6cc(Cl)ccc56)CC4)CC3)ccnc2c1` [PIPERAQUINE], the results for the IC50 in the assay on Plasmodium falciparum [6] and in the assay with Plasmodium falciparum [7] were 0.7 nM and 1.5 nM, respectively.
In the case of `CSc1nc2ccccc2cc1/C=[N+](\[O-])c1ccccc1`, the “fold change (FC)” value was found to be 12 in the assay on RPMI-8226 [8] and 4 with RPMI-8226 [9]. Besides, the IC50 in the assay on HCT-116 and in the assay on RPMI-8226 [10] was 450 nM throughout.
